Results published in patent US20110245148A1, “ACETIC ACID AND A BUFFER” (priority 2008, published 2011).
Where a name gives a salt, the structure may show the parent alone. Read-outs that look alike come from different tables or passages of the source.

How the values were obtained:
[1] = system: P. aeruginosa biofilms; test: continuous flow chamber biofilm, 3-day-old, harvested and plated for viability; assay type: cell-based, P. aeruginosa PAO1; conditions: for eradication of mature biofilm (viability on LB plates): 24 hours
Excerpt: (§1) The wild-type P. aeruginosa PAO1 used for the planktonic and biofilm experiments was obtained from the Pseudomonas Genetic Stock Center (www.pseudomonas.med.ecu.edu, strain PAO0001). The wild-type S. aureus 8325-4, used for planktonic and biofilm experiments was described by Novick, R. P. 1967. For plating, Luria broth (LB) medium mix with 2.0% agar was used. For all experiments including bacterial biofilms, AB minimal medium supplemented with glucose was used except if different is mentioned. […] The continuous flow system is based on once through flow chambers perfused with sterile AB minimal medium containing 0.3 mM glucose as described by Christensen et al. (1999). Continuous flow biofilm tolerance to acetic acid was assessed by growing P. aeruginosa or S. aureus biofilms for three days, then subsequently at day three to four supplementing the AB minimal medium with different concentrations of acetic acid or HCl (HCL served as a as control to acetic acid treatments). […] Due to the buffer capacity of the AB minimal medium used, the pH of the solution became 4.33. […] After the treatment the biofilm biomasses were harvested mechanically from the flow chambers and plated on LB plates for determination of viability. […] The kinetics of antimicrobial activity against mature biofilms was tested by treating a 3-day-old continuous flow chamber biofilms of either P. aeruginosa with 0.5% or S. aureus with 1.0% acetic acid for 24 hours. Due to the buffer capacity of the AB minimal medium used the pH of the solution became 4.33. […] After the treatment the biofilms were harvested mechanically, by scraping with a sterile scalpel, from the flow chambers and plated on LB plates for determination of viable counts.

[2] = system: static P. aeruginosa biofilms; test: static 24 hour old biofilm in microtiter dishes, CFU after treatment; assay type: cell-based; conditions: for antimicrobial effect on biofilm (CFU): 0.5% acetic acid
Excerpt: AB minimal medium without acetic acid adjusted to different pH values was used as control.
AB minimal medium supplemented with increasing concentrations of tobramycin served as control. The biofilm were harvested and plated on LB plates to determine the CFU after treatment (For visual appearance “no growth” is arbitrarily given a CFU value of 2).
AB minimal medium without acetic acid, but supplemented with increasing concentrations of tobramycin served as control.
The wild-type P. aeruginosa PAO1 used for the planktonic and biofilm experiments was obtained from the Pseudomonas Genetic Stock Center (www.pseudomonas.med.ecu.edu, strain PAO0001). The wild-type S. aureus 8325-4, used for planktonic and biofilm experiments was described by Novick, R. P. 1967.
For plating, Luria broth (LB) medium mix with 2.0% agar was used. For all experiments including bacterial biofilms, AB minimal medium supplemented with glucose was used except if different is mentioned.
(§2) The static biofilm setup is based on biofilms growing in microtiter dishes with AB minimal medium containing 0.3 mM glucose as described by O'toole et al (1999). Planktonic cultures were grown in shake flasks at 37° C.
(§3) Static biofilm tolerance to acetic acid was assessed by exchanging the AB minimal medium of 24 h old biofilms with AB minimal medium supplemented with different concentrations of acetic acid or HCl as control. To raise the pH of either acetic acid or HCl, NaOH was added in different concentrations.
(§4) To elucidate a synergistic antimicrobial effect of acetic acid and antibiotics, static biofilms of P. aeruginosa were grown for 24 hours prior to subsequent treatment with increasing concentrations of tobramycin and 0.5% acetic acid in the pH interval 3-6.85. The pH was adjusted by supplementing the AB minimal medium with either HCl or NaOH.

[3] = system: S. aureus biofilms; conditions: for eradication of mature biofilm (viability on LB plates): 24 hours
Excerpt: as §1

[4] = system: clinical mucoid P. aeruginosa isolate; conditions: 0.5% acetic acid, pH below 4.76
Protocol: as §2, §3, §4

[5] = system: clinical non-mucoid P. aeruginosa isolate; conditions: 0.5% acetic acid, pH below 4.76
Protocol: as §2, §3, §4

[6] = 0.5% acetic acid, AB minimal medium, pH 4.33
[7] = 1.0% acetic acid, AB minimal medium, pH 4.33

For `Cl` [HCl, reference compound], the “eradication of mature biofilm (viability on LB plates)” value ([1]; AB minimal medium adjusted to pH 4.33 using HCl) was “no effect”.

In the case of `NC[C@H]1O[C@H](O[C@H]2[C@H](O)[C@@H](O[C@H]3O[C@H](CO)[C@@H](O)[C@H](N)[C@H]3O)[C@H](N)C[C@@H]2N)[C@H](N)C[C@@H]1O` [Tobramycin, tobramycin, reference compound], the “reduction of bacterial viability” value ([2]; tobramycin alone at concentrations above 12.5 μg/ml) is reported as 5 fold.

For `CC(=O)O` [acetic acid], the “eradication of mature biofilm” value ([1]; 0.5% acetic acid in sterile miliQ water) was “Complete eradication”, the “eradication of mature biofilm (viability on LB plates)” value [1, 6] was “completely eradicated” and the “time to complete killing of all bacteria” value [1, 6] was 3 h. For the same compound, the “eradication of mature biofilm (viability on LB plates)” value [1, 7] was “completely eradicated”, the “eradication of mature biofilm (viability on LB plates)” value [3, 6] was “reduced the number of viable cells” and the “eradication of mature biofilm” value ([3]; 1.0% acetic acid in sterile miliQ water) was “Complete eradication”. The “eradication of mature biofilm (viability on LB plates)” value [3, 7] was “complete eradication”, the “time to complete killing of all bacteria” value [3, 7] was 3 h and the “effect of acetic acid alone on biofilm” value [2] was “decreasing”. The “antibacterial effect on biofilm (CFU)” value ([2]; 0.5% acetic acid alone, pH 6.85) was “no antibacterial effect”, the “antimicrobial effect on biofilm (CFU)” value ([2]; pH 5) was “reduced effect” and the “antimicrobial effect on biofilm (CFU)” value ([2]; pH 5.5 and above) was “no effect”. For the same compound, the “antimicrobial effect on biofilm (CFU)” value ([2]; pH interval 3-4.76) was “eradicated biofilms”, the “eradication of biofilm (CFU)” value [4] was “eradicates the biofilms” and the “eradication of biofilm (CFU)” value [5] was “eradicates the biofilms”.
